Assay results as given in patent publication US11039618B2, “Metam salts and polysulfide soil treatment” (Tessenderlo Kerley, Inc, priority 2016, dated 2021).

Columns and labels:
[1] = test system: artificially infested V. dahliae soil; assay: Greenhouse eggplant bioassay (plant height) in treated, artificially infested V. dahliae soil; assay type: in vivo; conditions: preliminary; for eggplant height Jul. 27, 2017: soil treated Jun. 27, 2017, eggplant transplanted July 13, rates gal/acre on 12 inch soil depth, letters after value = statistical grouping, untreated 118; for eggplant height Aug. 4, 2017 / eggplant height Aug. 10, 2017 / eggplant height Aug. 17, 2017: soil treated Jun. 27, 2017, letters = statistical grouping; for eggplant height Aug. 4, 2017: untreated 124; for eggplant height Aug. 10, 2017: untreated 134
Description: In these tests, greenhouse and microplot trials were done to further define the LSS efficacy as stand-alone treatment as well as in combination with Sectagon®. A large number of soil samples were treated using the rates below, expressed as gallons equivalent per acre of (LSS), a 3.07 pounds Calcium Polysulfide per gallon Liquid Lime Sulfur Solution, and Sectagon®, a 4.25 pound per gallon sodium methyldithiocarbamate (metam) solution. Each treatment was performed on six samples to provide statistically valid data. As always, though the treatment is defined in terms of gallons per acre of two products, the testing is with a mixture.
To minimize sample variability that was apparent in certain previous tests, these tests were a greenhouse study, using artificially infested V. dahliae soil. A soil derived from a Romaine lettuce field in Salinas, Calif. (collected September 2015) was confirmed (January 2017) to be highly infested with V. dahliae. Romaine lettuce were grown in the V. dahliae infested soil until microsclerotia built up in the leaves. Infested leaves were harvested, dried, crumbled, and mixed with autoclaved sand. Samples of the mixture were tested for V. dahliae. The mixture was used for the greenhouse study and for the production of pathogen bags for the microplot study.
Artificially infested V. dahliae soil were treated according to the above list. The greenhouse/eggplant study utilize a sterile sand+10% potting mix soil. The inoculated soil was pre-irrigated to ca. 70% field capacity for 14 days, and was then soil placed in various containers, each of which was then treated with appropriate LSS/Metam mixture in a certain volume of water. The soil was thoroughly mixed/agitated, and left sealed for 24 hours to simulate a water seal or tarp. The container was then unsealed 24 hours after application and allowed to sit for 14 days and then mixed and apportioned into 4″ pots for growing eggplant as the bioassay.
To simulate a situation closer to field conditions, a field based microplot study was also established for a few of the above tests, using eggplant. The greenhouse/eggplant study utilized a sterile sand+10% potting mix soil; the inoculated soil was pre-irrigated to ca. 70% field capacity for 14 days; soil was placed in a bucket, treated with appropriate LSS/Metam mixture in correct volume of water, thoroughly mixed/agitated, and left sealed for 24 hours to simulate a water seal or tarp. The bucket was unsealed at 24 hours after application and allowed to sit for 14 days and then mixed and apportioned into 4″ pots for growing eggplant as the bioassay. Seven days after treatment, one soil sample per replicate was taken. V. dahliae control efficacy was assessed according to the methods below, but only on selected treatments due to time pressures. At 14 days after treatment, eggplants were grown in the remaining soil to assess treatment effects on vigor and growth. […] Microplots were located at the USDA Research Field at Spence Road, Salinas, Calif. Treatments were selected based on the results of the previous greenhouse study. Trial site was pre-irrigated for 7 days before placing the Verticillium, V. dahliae, sample bags in the various treatments. Sprinkler irrigation was used to establish 60-80% soil moisture. Four V. dahliae samples per replicate were artificially introduced at 4 and 8 inches depth. Treatments were applied with micro emitter and drip across the microplot. The treatment using a 2 hour drip irrigation period was anticipated to provide penetration to 12 inch depth. After treatment, microplots remained untarped. After 5-7 days V. dahliae samples were recovered.
All LSS and Sectagon® treatments were made, mixing the treatment well with the soil and covering to prevent outgassing on Jun. 27, 2017. On June 28 the lids were removed lids. […]

Verticillium = assay: Jar test 2016: Verticillium microsclerotia colonies in treated soil, dry soil plating on NP-10; assay type: cell-based, Verticillium dahliae; conditions: 2016 test; microsclerotia colonies per gram of soil post-treatment; soil 20% water content; 4 replicates
Description: These investigations were performed under laboratory conditions in an initial jar test. We also investigated the pathogen control efficacy of LSS treatments, at 30 gal/acre (90 pounds/acre or 101 Kg/ha of calcium polysulfide) and at 90 gal/acre (276 pounds/acre or 310 Kg/ha of calcium polysulfide), and combined Metam/LSS treatments using Sectagon® brand metam at 20 gal/acre Metam (84 pounds/acre or 94 Kg/ha of metam sodium) with 40 gal/acre LSS (122 pounds/acre or 138 Kg/ha of calcium polysulfide); and at 30 gal/acre Metam (126 pounds/acre or […] of metam sodium) with 20 gal/acre LSS (60 pounds/acre or 67 kg/ha of calcium polysulfide). […] This may be due to lower water saturation in the 2016 tests compared to the saturation in 2015 tests, which was near 100%.
Each treatment listed in Table 1 was replicated 4 times. Verticillium levels in soil were assessed by dry incubation on semi selective media (NP-10) method. Soil collected from a Romaine lettuce field in Salinas, Calif. was used for the investigation. […]
Experimental Setup: Seven treatments were installed in 4 replicates each. […] The equivalent of gal/acre was calculated on the assumption that on acre of soil has an average weight of 3,625,895 lbs. […] Afterwards, soil was split between the two laboratories and were assessed according to the method described.
Verticillium levels in soil were assessed by dry incubation on semi selective media (NP-10). […]
The quantity of Verticillium in soil was assessed by dry soil plating on NP-10 semi-selective medium. […] After that, remaining soil was gently washed off the plates and the number of Verticillium microsclerotia colonies were counted on each plate under a microscope. The number of microsclerotia colonies is used as a standard method to quantify Verticillium in soil and was extrapolated for 1 g soil.
Results were analyzed in a one-way ANOVA (P=0.05) and a Fisher LSD Post-Hoc test. […]
Verticillium assessments were performed parallel in two separate laboratories. […] The quantity of Verticillium in soil was assessed by dry soil plating on NP-10 semi-selective medium. […]

## CNC(=S)[S-].[Na+] [Sample 9, sodium methyldithiocarbamate]
[1]
  eggplant height Jul. 27, 2017: 138bcdef mm
  eggplant height Aug. 4, 2017: 150cdefg mm
  eggplant height Aug. 10, 2017: 155cdefg mm
[1]; untreated 138
  eggplant height Aug. 17, 2017: 160bcdef mm

## CNC(=S)[S-].[Na+] [Sample 8, sodium methyldithiocarbamate]
[1]
  eggplant height Jul. 27, 2017: 140abcde mm
  eggplant height Aug. 4, 2017: 145 cdefg mm
  eggplant height Aug. 10, 2017: 159 bcdef mm
[1]; untreated 138
  eggplant height Aug. 17, 2017: 163bcde mm

## CNC(=S)[S-].[Na+] [Sample 10, sodium methyldithiocarbamate]
[1]
  eggplant height Jul. 27, 2017: 150abc mm
  eggplant height Aug. 4, 2017: 160bcde mm
  eggplant height Aug. 10, 2017: 169abcde mm
[1]; untreated 138
  eggplant height Aug. 17, 2017: 171acbd mm
[1]; untreated 138, listed as comparative example 10
  eggplant height Aug. 17, 2017: 171 mm

## CNC(=S)[S-].[Na+] [Comp. Example 3, sodium methyldithiocarbamate]
Verticillium
  Verticillium quantity (ms/g) Lab A: 0.5 ± 0.5 ms/g
  Verticillium quantity (ms/g) Lab B: 12 ± 3 ms/g
